# Measurements taken from PMC6284057, “Combined Antibacterial Effects of Goat Cathelicidins With Different Mechanisms of Action” (Frontiers in Microbiology, 2018).
# Where two headings read alike, the source gives them in different places. No end group written: not given here.
# Key:
# [1] = tested on: M. luteus B-1314; type: cell-based, Micrococcus luteus; conditions: Mueller-Hinton broth, 10^6 CFU/ml, peptide diluted in 0.1% BSA, 37°C, 24 h, median of at least 3 experiments in triplicate
# Description: (§1) Antimicrobial assay was performed as described previously ([Panteleev et al., 2017b]). Briefly, mid-log phase bacterial test cultures were diluted with the 2× Mueller-Hinton broth (MH, Sigma) supplemented with 1.8% NaCl or without it so that to reach a final cell concentration of 10^6 CFU/ml. 50 μl aliquots of the obtained bacterial suspension were added to 50 μl of the peptide solutions serially diluted with 0.1% water solution of bovine serum albumin (BSA) in 96-well flat-bottom polystyrene microplates (Eppendorf #0030730011). After incubation at 37°C and 900 rpm for 24 h the minimum inhibitory concentrations (MIC) were determined as the lowest peptide concentrations that prevented growth of a test microorganism observed as visible turbidity. The results were expressed as the median values determined on the basis of at least three independent experiments performed in triplicate.
# [2] = tested on: B. subtilis B-886; type: cell-based, Bacillus subtilis; conditions: Mueller-Hinton broth, 10^6 CFU/ml, 0.1% BSA, 37°C, 24 h, median of at least 3 experiments
# Description: as §1
# [3] = tested on: E. faecalis ATCC 29212; type: cell-based, Enterococcus faecalis; conditions: Mueller-Hinton broth, 10^6 CFU/ml, 0.1% BSA, 37°C, 24 h, median of at least 3 experiments
# Description: (§3) Briefly, mid-log phase bacterial test cultures were diluted with the 2× Mueller-Hinton broth (MH, Sigma) supplemented with 1.8% NaCl or without it so that to reach a final cell concentration of 10^6 CFU/ml. 50 μl aliquots of the obtained bacterial suspension were added to 50 μl of the peptide solutions serially diluted with 0.1% water solution of bovine serum albumin (BSA) in 96-well flat-bottom polystyrene microplates (Eppendorf #0030730011). […] The results were expressed as the median values determined on the basis of at least three independent experiments performed in triplicate.
# [4] = tested on: S. aureus ATCC 29213; type: cell-based, Staphylococcus aureus; conditions: Mueller-Hinton broth, 10^6 CFU/ml, 0.1% BSA, 37°C, 24 h, median of at least 3 experiments
# Description: as §3
# [5] = tested on: S. aureus 209P; type: cell-based, Staphylococcus aureus; conditions: Mueller-Hinton broth, 10^6 CFU/ml, 0.1% BSA, 37°C, 24 h, median of at least 3 experiments
# Description: as §1
# [6] = tested on: P. aeruginosa PAO1; type: cell-based, Pseudomonas aeruginosa; conditions: Mueller-Hinton broth, 10^6 CFU/ml, 0.1% BSA, 37°C, 24 h, median of at least 3 experiments
# Description: as §1
# [7] = tested on: A. baumannii (XDR CI 2675); test: microbe, parasite or virus in culture; type: cell-based, Acinetobacter baumannii; conditions: Mueller-Hinton broth, 10^6 CFU/ml, 0.1% BSA, 37°C, 24 h, median of at least 3 experiments, read-out: Minimum inhibitory concentration
# Description: as §1
# [8] = tested on: K. pneumoniae (CI 287); type: cell-based, Klebsiella pneumoniae; conditions: Mueller-Hinton broth, 10^6 CFU/ml, 0.1% BSA, 37°C, 24 h, median of at least 3 experiments
# Description: as §1
# [9] = tested on: E. cloacae (XDR CI 4172); test: microbe, parasite or virus in culture; type: cell-based, Enterobacter cloacae; conditions: Mueller-Hinton broth, 10^6 CFU/ml, 0.1% BSA, 37°C, 24 h, median of at least 3 experiments, read-out: Minimum inhibitory concentration
# Description: as §1
# [10] = tested on: E. coli C600; type: cell-based, Escherichia coli; conditions: Mueller-Hinton broth, 10^6 CFU/ml, 0.1% BSA, 37°C, 24 h, median of at least 3 experiments
# Description: as §1
# [11] = tested on: E. coli ML-35p; type: cell-based, Escherichia coli; conditions: Mueller-Hinton broth, 10^6 CFU/ml, 0.1% BSA, 37°C, 24 h, median of at least 3 experiments
# Description: as §1
# [12] = tested on: E. coli XDR CI 1057 (26 days with mini-ChBac7.5Nα); conditions: resistant strain, 26 days with mini-ChBac7.5Nα
# Description: as §1, with “After incubation at 37°C and 900 rpm for 24 h the minimum inhibitory concentrations (MIC) were determined as the lowest peptide concentrations that prevented growth of a test microorganism observed as visible turbidity.” left out
# (§2) Resistance induction experiments were performed using the previously described method ([Chernysh et al., 2015]) with some modifications. Briefly, on day 1, the overnight culture of wild-type bacteria was diluted with the 2× MH broth containing 1.8% NaCl so that to reach a final cell concentration of 10^6 CFU/ml. 50 μl aliquots of the obtained bacterial suspension were added to 50 μl of the peptide solutions serially diluted with 0.1% water solution of BSA in 96-well microplates (Eppendorf #0030730011). After incubation at 37°C and 900 rpm for 22 ± 2 h, MICs were determined as described above. For each subsequent daily transfer, 5 μl of the inoculum taken from the first well with a sub-inhibitory drug concentration were diluted with 1 ml of the fresh 2× MH broth supplemented with 1.8% NaCl. […] 26 repeated passages in the presence of antimicrobial agents were made for each bacterial strain during the experiment. […] Control serial passages in the absence of the agent were also performed.
# [13] = tested on: E. coli XDR CI 1057 (26 days without antimicrobial agent); conditions: control strain, 26 days without antimicrobial agent
# Description: as §1, with “After incubation at 37°C and 900 rpm for 24 h the minimum inhibitory concentrations (MIC) were determined as the lowest peptide concentrations that prevented growth of a test microorganism observed as visible turbidity.” left out
# as §2
# [14] = tested on: mini-ChBac7.5Nα-resistant E. coli strain; conditions: peptide alone, before addition of ChMAP-28
# Description: as §1, with “After incubation at 37°C and 900 rpm for 24 h the minimum inhibitory concentrations (MIC) were determined as the lowest peptide concentrations that prevented growth of a test microorganism observed as visible turbidity.” left out
# as §2
# [15] = tested on: mammalian cell lines (HEK293T, HEF); test: Cytotoxicity (MTT assay); type: cell-based, human; conditions: HEK293T and HEF, 24 h incubation
# Description: Hemolytic activity of the peptides was tested against the fresh suspension of human red blood cells (hRBC) using the hemoglobin release assay as described previously ([Panteleev et al., 2016]). Three experiments were performed with the hRBC from blood samples obtained from independent donors. The obtained data were represented as average means with standard deviations. The cytotoxicity of the peptides against HEK293T (transformed human embryonic kidney cells) and HEF (human embryonic fibroblasts) cell lines was studied using the colorimetric 3-(4,5-dimethylthiazol-2-yl)-2,5-diphenyltetrazolium bromide (MTT) dye reduction assay according to ([Panteleev and Ovchinnikova, 2017]). Three independent experiments were performed for each peptide. Half maximal inhibitory concentration (IC50) values were estimated as described previously ([Kuzmin et al., 2018]).
sequence,measurement,setting,value
RRLRPRRPRLPRPRPR [mini-ChBac7.5Nα(1–16)],Minimum inhibitory concentration,[1]; 0.9% NaCl,8 µM
same,Minimum inhibitory concentration,[1]; Without NaCl,1 µM
same,Minimum inhibitory concentration,[2]; 0.9% NaCl,>32 µM
same,Minimum inhibitory concentration,[2]; Without NaCl,1 µM
same,Minimum inhibitory concentration,[3]; 0.9% NaCl,>32 µM
same,Minimum inhibitory concentration,[3]; Without NaCl,>32 µM
same,Minimum inhibitory concentration,[4]; 0.9% NaCl,>32 µM
same,Minimum inhibitory concentration,[4]; Without NaCl,>32 µM
same,Minimum inhibitory concentration,[5]; 0.9% NaCl,>32 µM
same,Minimum inhibitory concentration,[5]; Without NaCl,8 µM
same,Minimum inhibitory concentration,[6]; 0.9% NaCl,>32 µM
same,Minimum inhibitory concentration,[6]; Without NaCl,16 µM
same,MIC,[7]; 0.9% NaCl,>32 µM
same,MIC,[7]; Without NaCl,4 µM
same,Minimum inhibitory concentration,[8]; 0.9% NaCl,>32 µM
same,Minimum inhibitory concentration,[8]; Without NaCl,4 µM
same,MIC,[9]; 0.9% NaCl,>32 µM
same,MIC,[9]; Without NaCl,1 µM
same,Minimum inhibitory concentration,[10]; 0.9% NaCl,16 µM
same,Minimum inhibitory concentration,[10]; Without NaCl,2 µM
same,Minimum inhibitory concentration,[11]; 0.9% NaCl,8 µM
same,Minimum inhibitory concentration,[11]; Without NaCl,0.5 µM
same,Minimum inhibitory concentration,[12]; With 0.9% NaCl,>256 µM
same,Minimum inhibitory concentration,[12]; Without salt,16 µM
same,Minimum inhibitory concentration,[13]; With 0.9% NaCl,16 µM
same,Minimum inhibitory concentration,[13]; Without salt,2 µM
same,MIC of the individual peptide,[14],> 256 µM
same,concentrations at which cytotoxic activity was shown,[15],> 25 µM
